# Measurements published in patent US12053441B2, “Formulations for improving the delivery of hydrophobic agents” (THE ROYAL INSTITUTION FOR THE ADVANCEMENT OF LEARNING / …, priority 2018, dated 2024).
# Where a name gives a salt, the structure may show the parent alone.
# Tested on: not given
# Test: not given
# Details: cited from earlier work
row,Molecule,solubility in water
1,COc1cc([C@@H]2c3cc4c(cc3[C@@H](O[C@@H]3O[C@@H]5CO[C@@H](C)O[C@H]5[C@H](O)[C@H]3O)[C@H]3COC(=O)[C@H]23)OCO4)cc(OC)c1O [etoposide],200 µg/mL
2,O=C(O)c1ccccc1Nc1cccc(C(F)(F)F)c1 [flufenamic acid],9.09 µg/mL
3,CCCC1O[C@@H]2C[C@H]3[C@@H]4CCC5=CC(=O)C=C[C@]5(C)[C@H]4[C@@H](O)C[C@]3(C)[C@]2(C(=O)CO)O1 (stereo partly shown) [budesonide],10.7 mg/1
4,CCCSc1ccc2nc(NC(=O)OC)[nH]c2c1 [albendazole],insoluble
5,CC(=O)O[C@@]12CO[C@@H]1C[C@H](O)[C@@]1(C)C(=O)[C@H](O)C3=C(C)[C@@H](OC(=O)[C@H](O)[C@@H](NC(=O)OC(C)(C)C)c4ccccc4)C[C@@](O)([C@@H](OC(=O)c4ccccc4)[C@H]21)C3(C)C [docetaxel],4.93 µg/mL
6,COc1cc([C@@H]2c3cc4c(cc3[C@@H](O[C@@H]3O[C@@H]5CO[C@@H](c6cccs6)O[C@H]5[C@H](O)[C@H]3O)[C@H]3COC(=O)[C@H]23)OCO4)cc(OC)c1O [teniposide],59.8 µg/mL
7,Nc1nc2c(ncn2COCCO)c(=O)[nH]1 [acyclovir],< 2500 µg/mL
8,O=C(O)COC(=O)Cc1ccccc1Nc1c(Cl)cccc1Cl [aceclofenac],insoluble

# Tested on: UQ-deficient cells (Mclk1 KO or DKO cells)
# Test: Screening for compounds that increase survival or respiration of UQ-deficient cells
# Type: cell-based, mouse
# Details: not given
# Description: Four different screening methods were developed. The screening methods 1 to 3 are based on rescue-of-lethality in glucose-free galactose-containing media. The presence of galactose instead of glucose forces the cells to rely on oxidative phosphorylation for energy production. Screening method 4 is based on rescue of respiration, implying that processes immediately dependent on UQ have been rescued. Libraries of small molecules were screened for compounds and/or agents that increase survival of UQ-deficient cells (e.g., Mclk1 KO or DKO cells) in standard or modified galactose media depending on the screen settings.
# The screen uses cells lacking UQ (e.g., Mclk1 KO cells) and consists of three key steps: • 1) Day 0: preparation of Mclk1 KO cells in 96-well plates in standard (glucose-containing) culture medium. • 2) Day 1: changing to glucose-free galactose-containing medium and adding compounds to be screened at a concentration of approximately 10 μM. • 3) Day 4 to 6: following 3 to 5 days of incubation with the compound to be screened, media were removed and cell viability was assayed by resazurin reduction assay.
# The screen also uses cells lacking UQ biosynthesis (e.g., DKO cells) and its protocol is essentially the same as the galactose-only screen except that in step 2, a minimal amount of UQ10 is added into the galactose screening media at a concentration at which the added UQ10 is insufficient by itself to support survival.
# The screen uses Mclk1 SKO cells and its protocol is essentially the same as the galactose-only screen except that in step 2, the screening medium is added with 2,4-DHB at a concentration that allows the KO cells to restore some UQ biosynthetic ability but not sufficiently to allow for a level of UQ production that is sufficient for respiration-dependent growth. Thus, under these conditions a compound that can boost the overall level of UQ biosynthesis might allow the cells to make enough UQ to survive in a respiration-dependent medium. Such a screen can identify compounds that boost UQ biosynthesis at any level, including at the level of gene expression.
# This screening approach aims to directly identify compounds that can boost mitochondrial respiratory chain activity in respiration-deficient cells. […] For this, cells were seeded into XF24 V7 culture plates and treated with testing compounds for 1 to 2 days before a treatment effect on cellular respiration is measured using the Seahorse XF-24e Flux Analyzer. The XF assay was the same as above described except galactose (10 mM) rather glucose was used as the sugar source to increase respiration rate and thus assay sensitivity.
row,Molecule,identified by the screening methods as useful for UQ deficiency
1,CCCCC(=O)O[C@]1(C(=O)CO)[C@@H](C)C[C@H]2[C@@H]3CCC4=CC(=O)C=C[C@]4(C)[C@@]3(F)[C@@H](O)C[C@@]21C [betamethasone valerate],identified
2,CC(=O)O[C@]1(C(C)=O)CC[C@H]2[C@@H]3C[C@H](C)C4=CC(=O)C=C[C@]4(C)[C@@]3(F)[C@@H](O)C[C@@]21C [fluorometholone acetate],identified
3,CCc1c2c(nc3ccc(O)cc13)-c1cc3c(c(=O)n1C2)COC(=O)[C@]3(O)CC [SN-38],identified
4,Caspofungin acetate,identified
5,CNC(=O)c1cccc(-c2ccc3c(N4CCOC[C@@H]4C)nc(N4CCOC[C@@H]4C)nc3n2)c1 [AZD2014],identified
6,CS(=O)(=O)N1CCc2c(-c3cnc(N)nc3)nc(N3CCOCC3)nc21 [CH5132799],identified
7,C[C@@H]1C[C@H]2[C@@H]3CCC4=CC(=O)C=C[C@]4(C)[C@@]3(Cl)[C@@H](O)C[C@]2(C)[C@@]1(OC(=O)c1ccco1)C(=O)CCl [mometasone furoate],identified
8,C[C@]12C=CC(=O)C=C1CC[C@H]1[C@@H]3C[C@@H](O)[C@](O)(C(=O)CO)[C@@]3(C)C[C@H](O)[C@@]12F [triamcinolone],identified
9,CCC(=O)O[C@]1(C(=O)SCF)[C@H](C)C[C@H]2[C@@H]3C[C@H](F)C4=CC(=O)C=C[C@]4(C)[C@@]3(F)[C@@H](O)C[C@@]21C [fluticasone propionate],identified
10,"Nc1cc(C(F)(F)F)c(-c2cc(N3CCOCC3)nc(N3CCOCC3)n2)cn1 [BKM120, buparlisib]",identified
11,C[C@]12CCC(=O)C=C1CC[C@@H]1[C@@H]2[C@@H](O)C[C@@]2(C)[C@H]1CC[C@]2(O)C(=O)CO [hydrocortisone],identified
12,Nc1nc(N)c2nc(-c3cccc(O)c3)cnc2n1 [TG100713],identified
13,CCOC(=O)O[C@]1(C(=O)OCCl)CC[C@H]2[C@@H]3CCC4=CC(=O)C=C[C@]4(C)[C@H]3[C@@H](O)C[C@@]21C [ioteprednol etabonate],identified
14,CNC(=O)Nc1ccc(-c2nc(N3CC4CCC(C3)O4)c3cnn(C4CCC5(CC4)OCCO5)c3n2)cc1 [WYE-125132],identified
15,CC1(C)O[C@@H]2C[C@H]3[C@@H]4CCC5=CC(=O)CC[C@]5(C)[C@@]4(F)[C@@H](O)C[C@]3(C)[C@]2(C(=O)CCl)O1 [halcinonide],identified
16,CCc1c2c(nc3ccc(OC(=O)N4CCC(N5CCCCC5)CC4)cc13)-c1cc3c(c(=O)n1C2)COC(=O)[C@]3(O)CC [irinotecan],identified

row,Molecule,identified by the screening methods as useful for UQ deficiency
1,C[C@@H]1COCCN1c1cc(C2(S(C)(=O)=O)CC2)nc(-c2cccc3[nH]ccc23)n1 [AZ20],identified
2,C[C@H]1c2cccc(O)c2C(=O)C2=C(O)[C@]3(O)C(=O)C(C(N)=O)=C(O)[C@@H](N(C)C)[C@@H]3[C@@H](O)[C@@H]21 [doxycycline HCl],identified
3,CC(=O)OCC(=O)[C@@]1(O)CC[C@H]2[C@@H]3CCC4=CC(=O)C=C[C@]4(C)[C@@]3(Cl)[C@@H](Cl)C[C@@]21C [dichlorisone acetate],identified
4,COc1cc2c(cc1Cc1cccc(Cl)c1F)c(=O)c(C(=O)O)cn2[C@H](CO)C(C)C [elvitegravir],identified
5,CCC(=O)OCC(=O)[C@@]1(OC(=O)CC)[C@@H](C)C[C@H]2[C@@H]3CCC4=CC(=O)C=C[C@]4(C)[C@@]3(F)[C@@H](O)C[C@@]21C [betamethasone dipropionate],identified
6,CC(=O)OCC(=O)[C@@]12N=C(C)O[C@@H]1C[C@H]1[C@@H]3CCC4=CC(=O)C=C[C@]4(C)[C@H]3[C@@H](O)C[C@@]12C [deflazacort],identified
7,CC(C)n1nc(-c2cc3cc(O)ccc3[nH]2)c2c(N)ncnc21 [PP242],identified
8,CNC1CCCN(c2c(F)cc3c(=O)c(C(=O)O)cn(C4CC4)c3c2OC)C1 (stereo not shown) [balofloxacin],identified
9,CC1(C)CCC(CN2CCN(c3ccc(C(=O)NS(=O)(=O)c4ccc(NCC5CCOCC5)c([N+](=O)[O-])c4)c(Oc4cnc5[nH]ccc5c4)c3)CC2)=C(c2ccc(Cl)cc2)C1 [ABT-199],identified
10,CC1(C)O[C@@H]2C[C@H]3[C@@H]4C[C@H](F)C5=CC(=O)C=C[C@]5(C)[C@@]4(F)[C@@H](O)C[C@]3(C)[C@]2(C(=O)CO)O1 [fluocinolone acetonide],identified
11,CC(C)C[C@H](NC(=O)CNC(=O)c1cc(Cl)ccc1Cl)B(O)O [MLN2238],identified
12,CC(=O)OCC(=O)[C@@]1(O)CC[C@H]2[C@@H]3CCC4=CC(=O)C=C[C@]4(C)[C@H]3[C@@H](O)C[C@@]21C [prednisolone acetate],identified
13,C[C@]12C=CC(=O)C=C1CC[C@@H]1[C@@H]2[C@@H](O)C[C@@]2(C)[C@H]1CC[C@]2(O)C(=O)CO [prednisolone],identified
14,CC1=C(CC(=O)O)c2cc(F)ccc2/C1=C\c1ccc([S+](C)[O-])cc1 (stereo not shown) [sulindac],identified
15,CC1(C)O[C@@H]2C[C@H]3[C@@H]4CCC5=CC(=O)C=C[C@]5(C)[C@H]4[C@@H](O)C[C@]3(C)[C@]2(C(=O)CO)O1 [desonide],identified

# Same assay, conditions: DKO cells, minimal UQ10 added
row,Molecule,hit in the UQ supplementation screen (method 2)
1,Caspofungin acetate,one of the hits
